Values quoted from earlier work in US20220313608A1, “TREATMENT OF BREAST CANCER” (SynCore Biotechnology Co., Ltd., priority 2015, published 2022).

Test system: metastatic breast cancer patients
Details: first-line, gemcitabine 1250 mg/m^2 days 1 and 8, paclitaxel 175 mg/m^2 triweekly

## CC(=O)O[C@H]1C(=O)[C@@]2(C)[C@H]([C@H](OC(=O)c3ccccc3)[C@]3(O)C[C@H](OC(=O)[C@H](O)[C@@H](NC(=O)c4ccccc4)c4ccccc4)C(C)=C1C3(C)C)[C@]1(OC(C)=O)CO[C@@H]1C[C@@H]2O [paclitaxel]
  frequency of alteration of hepatic function: 2%
